Laboratory results from US20190388428A1, “A Pharmaceutical Composition Comprising An Oxazine Derivative And Its Use In The Treatment Or Prevention Of Alzheimer's Disease” (NOVARTIS AG, priority 2017, published 2019).

Assays:
[1] = Off-target binding or activity (background statement)
[2] = Drug-drug interaction study with strong CYP3A4 inhibitor itraconazole in healthy volunteers; assay type: in vivo, human; conditions: with itraconazole 200 mg q.d. vs Compound 1 alone
Excerpt: (§1) The DDI study design is outlined in FIG. 10.
(§2) An ANOVA model with fixed effects for treatment and subject was fitted to each log-transformed PK parameter. Results were back transformed to obtain ‘Adjusted geo-mean’, ‘Geo-mean ratio’ and ‘90% Cl’.

[3] = Drug-drug interaction study with strong CYP3A4 inducer rifampicin in healthy volunteers; assay type: in vivo, human; conditions: with rifampicin 600 mg q.d. vs Compound 1 alone
Excerpt: as §1, §2

[4] = Chemical stability of crystalline Compound 1 at high temperature/humidity (UPLC purity); assay type: physicochemical; conditions: for Purity/%: crystalline material
Excerpt: After storage at high temperature and/or humidity, bulk crystalline material was sampled and dissolved in acetonitrile:water (80:20) and the purity analysed in a Waters Aquity UPLC using the following conditions: […]

[5] = Physical properties of the drug substance (solubility, hygroscopicity, wettability); assay type: physicochemical

increase of mean AUC [2]: 2-3 fold | increase of mean Cmax [2]: 25% | decrease of mean AUC [3]: 5-6 fold | decrease of mean Cmax [3]: 2.5 fold | Solid State Form ([4]; 50° C./75% RH, 3 weeks): Crystalline | Solid State Form ([4]; 50° C., 4 weeks): Crystalline | Solid State Form ([4]; 80° C., 3 weeks): Crystalline | Solid State Form ([4]; RT, 0 (initial)): Crystalline | Purity/% ([4]; 50° C./75% RH, 3 weeks): 96.8% | Purity/% ([4]; 50° C., 4 weeks): 97.3% | Purity/% ([4]; 80° C., 3 weeks): 97.3% | Purity/% ([4]; RT, 0 (initial)): 97.3% | hygroscopicity [5]: non-hygroscopic | wettability [5]: poorly wettable | solubility in water ([5]; water): poorly soluble
Structure (SMILES): C[C@@]1(c2nc(NC(=O)c3ncc(C(F)(F)F)cc3Cl)ccc2F)CO[C@@](C)(C(F)(F)F)C(N)=N1 [Compound 1, N-(6-((3R,6R)-5-amino-3,6-dimethyl-6-(trifluoromethyl)-3,6-dihydro-2H-1,4-oxazin-3-yl)-5-fluoropyridin-2-yl)-3-chloro-5-(trifluoromethyl)picolinamide]
off-target binding or activity [1]: no relevant off-target binding or activity
